For 67 compounds, melting point results are on record in a melting point compilation (Tetko et al.; mined from patent text by program, amines drawn as free bases though some values may be those of a salt).

For the compound `CCCCOc1c(N)c(=O)c1=O`, the melting point – broadly, the temperature, or range, at which the solid turns liquid – fell in the range of 166 to 168 °C. As for `O=C1C(CCO)Oc2ccc(F)cc2N1Cc1cccc([N+](=O)[O-])c1` (configuration not stated), the melting point is 110 to 112 °C. On to `COC(=O)CCc1ccc(O)c(C(C)(C)C)c1`, for which the melting point fell in the range of 59 to 61 °C.

`CC(C)(CNc1ccnc2cc(Cl)ccc12)NCc1cc(C(F)(F)F)cc(C(F)(F)F)c1` came in with a melting point of 140 to 141 °C. The value for `C=CCOc1cc(C(=O)CCCCCCCCCCCCC)c(O)c(C)c1C` was 65 to 66 °C; that for `Cc1nc(CN(C)C(=O)N[C@H](C(=O)N[C@@H](Cc2ccccc2)C[C@H](O)[C@H](Cc2ccccc2)NC(=O)OCc2cccnc2)C(C)C)cs1` was 69 to 72 °C; that for `COC(=O)CCCCCCCCOC1OC(CO)C(O)C(OC2OC(CO)C(O)C(O)C2O)C1NC(C)=O` (configuration not stated) was 208 to 210 °C. In the case of `COc1cc(C(=O)c2c[nH]c(-c3c[nH]c4ccccc34)n2)cc(OC)c1OC` it was 208 to 210 °C; in that of `CC(C)(C)OC(=O)N[C@@H](Cc1cncn1COCc1ccccc1)C(=O)O`, 155 to 157 °C. In the case of `Oc1cc2c(c3c1CC=CC3)Nc1ccccc1S2` it was 166 °C. `N#CCc1c[nH]c2ccc(CS(=O)(=O)Oc3ccccc3)cc12`: the melting point lay within 134 to 135 °C.

As for `Oc1cccc2c1CCC2N1CCCCC1` (configuration not stated), the melting point was in the range of 134 to 136 °C. Consider `COc1cc(C2=CCCCC2)c(Cl)cc1C(=O)N1Cc2cccn2Cc2ccccc21`, for which the melting point lay within 92 to 98 °C.

Consider `COC(=O)C(Oc1ccc(C(C)(C)C)cc1)c1ccc(Oc2ccc(Cl)cc2)cc1` (configuration not stated), for which the melting point was in the range of 118 to 120 °C. The value for `COc1ccc(C(=O)O)cc1CCCN(C)C` was 135 to 138 °C.

In the case of `COc1ccc(CC#N)cc1S(N)(=O)=O`, the melting point was 173 to 177 °C. In the case of `CNc1ccc(N2C(=O)c3ccccc3C2=O)c(C)c1` it was 159 to 161 °C. As to `CCOC(=O)Cc1c(C#N)cnc2c(NC(=O)c3c(Cl)cccc3Cl)cccc12`, the melting point fell in the range of 171 to 173 °C. The value for `Cc1c(C(=O)Nc2ccc(N3CCC(N4CCC(=O)CC4)CC3)c(C#N)c2)cnn1-c1ccc(Cl)cc1` was 213 °C. In turn, `Cc1oncc1C(=O)Nc1ccc(-n2nc(C3CC3)cc2C2CC2)cc1` registered a melting point of 153 to 158 °C. In the case of `N#CC(=NOCF)C(N)=O` it was 124 to 125 °C; in that of `CN1C(=O)NC(N)C1=O` (configuration not stated), 122 to 125 °C. The value for `CCOCc1nc2c(N)nc3c(c2n1CCCNS(C)(=O)=O)CCCC3` was 212 to 214 °C. In the case of `COc1cc(OC)c2cc(C(=O)c3ccccc3)c(=O)oc2c1` it was 178 to 179 °C; in that of `COC(=O)CCn1c(=O)n(CCN2CCN(c3cccc(C(F)(F)F)c3)CC2)c(=O)c2cscc21`, 87 to 88 °C. As for `CC1CN(c2ncc(C(=O)N(C)c3cccc(C(F)(F)F)c3)c(N)n2)C(=O)N1` (configuration not stated), the melting point is 237 to 238 °C. For `C#CCCCCCCCCCCCCCO`, the melting point is 42 to 44 °C. With `C=C(C)C(=O)OCCCCCCOc1ccc(C(=O)O)cc1`, the melting point amounted to 83 °C.

The compound `C=C(C)C1(CC(C)C)CCN(C(Cc2ccccc2)C(=O)NC)C1=O` (configuration not stated) displayed a melting point of 91 to 92 °C. Take `COc1cc(C(O)(C(F)(F)F)C(F)(F)F)cc(Br)c1NS(C)(=O)=O`: the melting point fell in the range of 38 to 41 °C. The value for `CCCCCCCC=C1SC(=S)N(N=c2sc3ccccc3s2)C1=O` was 185 °C; that for `CC1CC(=Cc2cc(C(C)(C)C)c(O)c(C(C)(C)C)c2)C(=O)N1C(N)=O` (configuration not stated) was 195 to 196 °C. The value for `CCCCOc1ncc(C(C)=O)cc1-c1nn2c(CC)nc(C)c2c(=O)[nH]1` was 190 to 196 °C. In the case of `Cn1c(=Nc2cccnc2)sc2ncccc2c1=O` it was 160 °C. In turn, `Cc1cc(F)cc(C)c1Cl` showed a melting point of 64 to 65 °C.

For the compound `CCOC(=O)c1c(-c2cccc(Cl)c2)csc1N1C(=O)c2ccccc2C1=O`, the melting point worked out at 169 °C.

In turn, `CCCCCS(=O)(=O)NCC(=O)O` came in with a melting point of 87 to 90 °C. Compound `C=CS(=O)(=O)NCCCc1ccc(-c2ccc(=O)[nH]n2)cc1` registered a melting point of 166 to 168 °C. In turn, `OCCSSc1nc2ccccc2s1` yielded a melting point of 65 to 68 °C. In the case of `CCCN1CC(C)CC2c3cccc4[nH]c(SC)c(c34)CC21` (configuration not stated) it was 216 to 219 °C; in that of `O=c1cc(-c2ccncn2)nc2n1CCCCC2Br` (racemic), 117 to 119 °C. In the case of `COCC(=O)NCc1cccc2c1CN(C1CCC(=O)NC1=O)C2=O` (configuration not stated) it was 232 to 234 °C. Compound `O=C1CCCC(=O)N1C(Sc1nnn[nH]1)c1ccccc1` (configuration not stated) came in with a melting point of 84 to 85 °C. The value for `CN(C)C(=Cc1ccccc1[N+](=O)[O-])C(=O)CBr` was 125 to 127 °C; that for `Nc1c(Br)cnn1-c1c(Cl)ccc(Cl)c1Cl` was 129 °C; that for `CN(C)CC/C=C1/c2ccccc2CCc2ccc(Br)cc21` was 73 to 75 °C. On to `COC(c1ccc(NC(=O)c2c(C)nn(C)c2C)c(C(C)CC(C)C)c1)(C(F)(F)F)C(F)(F)F` (configuration not stated), for which the melting point lay within 94 to 96 °C.

Compound `O=C1CCC(N2Cc3c(OCc4cccc(CN5CCC(c6ccc(Cl)cc6)CC5)c4)cccc3C2=O)C(=O)N1` (configuration not stated) yielded a melting point of 180 to 182 °C. As for `CCN(SCc1nccs1)C(=C[N+](=O)[O-])SC`, the melting point was 63 to 64 °C. In the case of `ClCCCOc1cccc2c(OCCCCl)cccc12` it was 219 °C; in that of `O=C(O)Cc1cc(Cl)c2c(c1)CCC(c1ccccc1F)N2` (configuration not stated), 127 to 129 °C. For `CC(C)Cn1c(CCCCNC(=O)N2CCOCC2)nc2c(N)nc3ccccc3c21`, the melting point was 97 to 100 °C. The value for `COC(=O)CSC(c1ccccc1Cl)c1ccccc1Cl` was 90 to 92 °C; that for `Fc1cccc(Cn2ncc3cc(Nc4ncnc5cnc(F)cc45)ccc32)c1` was 218 to 221 °C; that for `Cc1cccc(C(=O)c2cccc(N)c2)c1` was 110 °C. `C1=CCC(OC2=CC=CC2)=C1` displayed a melting point of 74 °C. In turn, `CC(=CCc1c(C)nc(N)nc1Cl)c1cc(Cl)ccc1Cl` registered a melting point of 97 to 100 °C. `Cc1ccc(C=NNc2nsc3ccccc23)cc1` showed a melting point of 294 °C. In turn, `CC(F)(F)c1cccc(-n2cnc(CO)c2)c1` had a melting point of 104 to 108 °C. `CC(C)(C)OC1CCC2(C)C(=CC(=O)C3C4CCC(=O)C4(C)CCC32)C1` (configuration not stated): the melting point was 189 to 191 °C.

`CCOC(=O)C(=O)Nc1ncc(C)s1` displayed a melting point of 166 to 168 °C. Turning to `Cc1cccc2nc(C(S)c3ncnc4[nH]cnc34)n(-c3ccccc3Cl)c(=O)c12` (configuration not stated), the melting point was 228 to 230 °C. In the case of `CCOC(=O)c1c(C)cc2nc(COC(N)=O)n(-c3ccccc3C(F)(F)F)c(=O)c2c1C` it was 158 to 159 °C; in that of `Nc1nc2cc(Br)ccc2c2c1nc(CNC(=O)C1CC1)n2CC1CCOCC1`, 240 °C; in that of `CCCCCCCCCCCCCCCCNc1ccc(C(=O)NC(C)(C)C(=O)O)cc1`, 199 to 202 °C.

In turn, `O=C(c1ccc(F)cc1)C1CCN(CC2CSc3ccc(F)cc3C2)CC1` (configuration not stated) registered a melting point of 98 to 102 °C.

Consider `CCC1Cc2cc(OC)c(Cl)c(Cl)c2C1=O` (configuration not stated), for which the melting point fell in the range of 146 to 147 °C.
